The subject of series [1] is peripheral blood lymphocytes stimulated by OKT3 antibody (anti-CD3). The series can be described thus: OKT3 stimulation assay, [3H]TdR incorporation. The following applies: Reverse Prenyl Compounds, read-out: IC50 OKT3 Assays. In kind it is cell-based, human. The procedure:
(§1) Fresh peripheral blood lymphocytes isolated by Ficoll-Hypaque density centrifugation are stimulated by PHA or the OKT3 antibody (anti-CD3), which stimulates via interaction with CD3. Stimulation is measured by incorporation of radioactive thymidine [(^3H)TdR] into proliferating cells, with an unhibited control signal of 48,000-75,000 cpm. IC50 values are estimated from inhibitions of proliferation observed at various drug concentrations.

Series [2] has as its system peripheral blood lymphocytes stimulated by PHA. In words: PHA stimulation assay, [3H]TdR incorporation. The conditions noted are these: Reverse Prenyl Compounds, read-out: IC50 PHA Assays. In kind it is cell-based, human. The protocol: as §1
Series [3] has as its system Human Peripheral Blood Lymphocytes. The series can be described thus: Thymidine incorporation assay: activation of human peripheral blood lymphocytes by phytohemagglutinin. It is filed as cell-based. The following applies: drug 30 min, then 10 μg/ml PHA 24 hrs, [3H]Thd incorporation. The protocol:
Inhibitory Effects of Ardeemin Compounds on the Activation of Human Peripheral Blood Lymphocytes by Phytohemagglutinin
Thymidine Incorporation Assay:
PBL were exposed to various concentrations of drugs for 30 min and then added 10 μg/ml PHA for 24 hrs. [^3H]Thd (1 μCi/well) was then added and incubated for 1 hr. The reaction is stopped by adding 10% TCA for analysis of [^3H]Tdk incorporation into DNA.

The test system of series [4] is B6D2F1 mice. In words: Cumulative toxicity in B6D2F1 mice. The protocol: FIG. 2 illustrates the cumulative toxicity in B6D2F1 mice treated with multidrug resistance reversal agents (mg/kg,i.p.,QD). Each group consists of five mice. […] Cumulated doses in the series shown in panels A, B and C were 712.5, 1700 and 3950 mg/kg×day, respectively.
In series [5] the test system is heterotopic cardiac transplants. The series can be described thus: Heterotopic mouse cardiac transplants (prospective example). It is filed as in vivo, mice. The conditions noted are these: 40 mg/kg-1 mg/25 g per day, i.v., 7 or 14 days, Alzet pump. The procedure:
5-N-Acetylardeemin and 5-N-acetyl-8-desmethylardeemin are individually administered to mice which have received heterotopic cardiac transplants at a range of concentrations (40 mg/kg-1 mg/25 g per day), i.v., for seven days or fourteen days using an Alzet pump. Each compound is dissolved in DMSO at high concentration prior to administration. Control animals receive the same volume of carrier solvent (40 μL DMSO).

For series [6], the system named is inflammation induced by carrageene. The series can be described thus: Inflammation induced by carrageene in mice pedis. In kind it is in vivo.
In series [7] the test system is P388/0 Tumors. It is filed as in vivo. Further details: SURVIVAL TIME of individual mice (No. 1-6): unit: days. The protocol: Survival times were determined for B6D2F1 mice inoculated with P388/0 cells, 10^6 cells/mouse, i.p. at Day 0. The mice were treated by adriamycin and 5-N-acetylardeemin, i.p., daily for four days. Survival times were recorded based on the time of death with the following scheme of decimal values: 8AM (0.0), 1PM (0.25), 5PM (0.5). An in vivo immunosuppressive effect of the ardeemin derivatives is found which persistently […] the lifespan of P388 tumor-bearing B6D2F1 mice in a dose-dependent manner.

The test system of series [8] is inflammation induced by carrageene. The series can be described thus: Inflammation induced by carrageene in mice pedis. In kind it is in vivo. The protocol: FIG. 3 illustrates the delayed treatment of inflammation induced by carrageene with aspirin, N-acetylardeemin and hydrocortisone. (●) Control; (▪) Aspirin (500 mg/kg, p.o.); (Δ) N-acetylardeemin (100 mg/kg, i.p.); (x) Hydrocortisone cream.
FIG. 4 illustrates the treatment of inflammation induced by carrageene with aspirin, N-acetylardeemin and hydrocortisone. (●) Control; (▪) Aspirin (500 mg/kg, p.o.); (Δ) N-acetylardeemin (100 mg/kg, i.p.); (x) Hydrocortisone cream.
This is another data set of the same source.

The subject of series [9] is peripheral blood lymphocytes stimulated by PHA. The conditions noted are these: Classical immunosuppressant (historical data); read-out: IC50 PHA Assays; cited from earlier work.
The subject of series [10] is peripheral blood lymphocytes stimulated by OKT3 antibody (anti-CD3). The following applies: Classical immunosuppressant (historical data); read-out: IC50 OKT3 Assays; cited from earlier work.
[11] abbreviates: 5NAcArd 3.33 mg/kg i.p. daily Day 1-4.
[12] abbreviates: 5NAcArd 10 mg/kg i.p. daily Day 1-4.
[13] abbreviates: 5NAcArd 30 mg/kg i.p. daily Day 1-4.
[14] abbreviates: Adr 0.333 mg/kg i.p. daily Day 1-4.
Where [15] appears, read: Adr 1.0 mg/kg i.p. daily Day 1-4.
[16] abbreviates: Adr 3.0 mg/kg i.p. daily Day 1-4.

The values below come from US6355639B1, “Reverse prenyl compounds as immunosuppressants” (Sloan-Kettering Institute for Cancer Research, priority 1997, dated 2002).

Values joined by “and” are separate entries in the source; they are usually repeats but may differ in a detail not shown here. Equal values may be shown once. Read-outs that look alike come from different tables or passages of the source. Marks after values point to notes of the source that are not given here.

For the molecule 5-N-Ac-F3-Ardeemin, the half-maximal inhibitory concentration (IC50) – broadly, the midpoint of a concentration-inhibition curve – in series [1] turned out to be 4.56 µM; in series [2], 9.97 ± 1.49 µM.

Take 8-demethylardeemin: the IC50 in series [3] is 2.26 µM; in series [1] (listed as 8-Desmethylardeemin), 2.23 ± 0.16 µM; in series [1] (listed as 8-desmethylardeemin) it was 1.2 to 2.3 µM; in series [2] (listed as 8-Desmethylardeemin), 2.26 ± 0.06 µM.

As for `C=CC(C)(C)[C@@]12C[C@H]3c4nc5ccccc5c(=O)n4CC(=O)N3[C@@H]1N(C(C)=O)c1ccccc12` [5-N-acetyl-8-demethylardeemin, 5-N-acetyl-8-desmethylardeemin], the concentration for half-maximal inhibition (IC50) is 0.98 µM in series [3], 1.13 ± 0.13 µM in [1] and 1.2 ± 0.02 µM in series [2] (listed as 5-N-Ac-8-desmethylardeemin). Also, the toxicity to mice entry in series [4] (FIG. 2, i.p., QD) is on record as “very nontoxic”; in [4] (sequential 100 mg/kg i.p. QDx6, 150 mg/kg QDx8, 200 mg/kg QDx3, 300 mg/kg QDx3), “non-toxic”. Besides, the “average body weight decreases” value in [4] (up to 250 mg/kg, Qdx3) is listed as “less than 0.5 g”. Further, the “resistance of organ transplant to graft rejection vs control mice” value in [5] is listed as “more resistant to graft rejection”.

The molecule `C=CC(C)(C)[C@@]12C[C@H]3c4nc5ccccc5c(=O)n4[C@H](C)C(=O)N3[C@@H]1N(C(C)=O)c1ccccc12` [5-N-acetylardeemin] showed a half-inhibitory concentration (IC50) in series [3] of 1.91 µM. Besides, the half-maximal inhibitory concentration (IC50) in series [1] was 31.9 µM. Moreover, the toxicity to mice entry in series [4] (FIG. 2, i.p., QD) is “relatively nontoxic”. In addition, in [6] (50 mg/kg i.p.), the “Average Pedis Area, Hours: 0” value is recorded as 6.8 mm^2; the “Average Pedis Area, Hours: 12” value amounted to 12.4 mm^2; the “Average Pedis Area, Hours: 24” value worked out at 12.7 mm^2; the “Average Pedis Area, Hours: 48” value was 11.3* mm^2. Also, in series [6] (50 mg/kg i.p.), the “Average Pedis Area, Hours: 60” value came out at 15.6 mm^2 and the “Toxicity Death” value was 0/5. Further, in series [6] (100 mg/kg i.p.), the “Average Pedis Area, Hours: 12” value is 9.7*** mm^2; the “Average Pedis Area, Hours: 24” value was 9.0*** mm^2; the “Average Pedis Area, Hours: 48” value is on record as 8.6*** mm^2. Further, the “resistance of organ transplant to graft rejection vs control mice” value in series [5] is reported as “more resistant to graft rejection”. In [7] (setting [11]), the “% ILS (% increase in lifespan)” value is reported as −2%, the “AWC D 4” value was “+0.9 Gm”, the “AWC D 6” value is on record as “+3.3 Gm” and the “MST (mean survival time)” value was found to be 7.25. Moreover, the “SURVIVAL TIME of individual mice (No. 1-6)” value (“SURVIVAL TIME … (No. 1-6)” for short) in [7] (setting [11]) was 8.0 (2×) and 6.0 and 7.0. In addition, in [7] (setting [12]), the “% ILS (% increase in lifespan)” value is −10%, the “AWC D 4” value is “+1.7 Gm”, the “AWC D 6” value was “+4.8 Gm” and the “MST (mean survival time)” value was determined as 6.67. Besides, the “SURVIVAL TIME … (No. 1-6)” value in series [7] (setting [12]) is 7.5 and 6.0 and 6.5. Besides, in series [7] (setting [13]), the “% ILS (% increase in lifespan)” value was −16%, the “AWC D 4” value is “+1.6 Gm”, the “AWC D 6” value is given as “+3.8 Gm” and the “MST (mean survival time)” value is 6.25. For the same molecule, in [7] (setting [13]), the “SURVIVAL TIME … (No. 1-6)” value is 6.0 and 6.5. For the same molecule, in series [8] (100 mg/kg i.p.), the “Average Pedis Area, Hours: 0” value was 7.1 mm^2; the “Average Pedis Area, Hours: 60” value is 10.2*** mm^2; the “Toxicity Death” value is given as 0/5. Also, in series [2], the 50% inhibitory concentration (IC50) was found to be 7.96 µM.

Regarding `S=c1nc[nH]c2nc[nH]c12` [6-MP], the results for the IC50 in series [9] and in [10] were 0.044 ± 0.017 µM and 0.136 ± 0.019 µM, respectively.

As for `COc1cccc2c1C(=O)c1c(O)c3c(c(O)c1C2=O)C[C@@](O)(C(=O)CO)C[C@@H]3O[C@H]1C[C@H](N)[C@H](O)[C@H](C)O1` [Adr, adriamycin, reference compound], the “% ILS (% increase in lifespan)” value in series [7] (setting [14]) amounted to 85%; in [7] (setting [15]), 129%; in [7] (setting [16]), 145%. In addition, the “MST (mean survival time)” value in series [7] (setting [14]) was determined as 13.75; in series [7] (setting [15]), 17.0; in series [7] (setting [16]), 18.19.

`CC(=O)Oc1ccccc1C(=O)O` [Aspirin]: in series [6] (250 mg/kg p.o.), the “Average Pedis Area, Hours: 0” value amounted to 6.9 mm^2; the “Average Pedis Area, Hours: 12” value was 12.5 mm^2; the “Average Pedis Area, Hours: 24” value is 12.3 mm^2; the “Average Pedis Area, Hours: 48” value was found to be 13.2 mm^2. In addition, in series [6] (250 mg/kg p.o.), the “Average Pedis Area, Hours: 60” value is 15.4** mm^2 and the “Toxicity Death” value was 0/5. In series [6] (500 mg/kg p.o.), the “Average Pedis Area, Hours: 12” value is given as 9.9** mm^2; the “Average Pedis Area, Hours: 24” value was 10.6** mm^2; the “Average Pedis Area, Hours: 48” value was 9.0*** mm^2; the “Average Pedis Area, Hours: 60” value was 10.0*** mm^2. For the same molecule, the “Toxicity Death” value in series [6] (500 mg/kg p.o.) is 0/5. In [6] (1000 mg/kg p.o.), the “Average Pedis Area, Hours: 0” value was found to be 6.5 mm^2; the “Average Pedis Area, Hours: 12” value is reported as 8.8*** mm^2; the “Toxicity Death” value was 5/6. For the same molecule, the “Average Pedis Area, Hours: 0” value in series [8] (500 mg/kg p.o.) is 6.8 mm^2.

As for `Cc1c(-c2ccc(-c3ccccc3F)cc2)nc2ccc(F)cc2c1C(=O)O` [Brequinard], the IC50 in [3] is 11.2 µM; in [9] it was 11.2 ± 4 µM; in series [10], 56.6 ± 22.7 µM.

The molecule `C[C@@H]1C[C@H]2[C@@H]3CCC4=CC(=O)C=C[C@]4(C)[C@@]3(F)[C@@H](O)C[C@]2(C)[C@@]1(O)C(=O)CO` [Dexamethasone, reference compound] showed a half-inhibitory concentration (IC50) in series [3] (Homo sapiens, Lymphocyte) of 28.2 µM.

`C=CC(C)(C)[C@@]12Nc3ccccc3[C@]1(O)C[C@H]1C(=O)N3[C@@H](C[C@]4(O)c5ccccc5N[C@]34C(C)(C)C=C)C(=O)N12` [Gypsetin]: the IC50 in series [1] came out at 12 ± 0.51 µM; in [2] it was 5.48 ± 1.24 µM.

Take `C[C@]12CCC(=O)C=C1CC[C@@H]1[C@@H]2[C@@H](O)C[C@@]2(C)[C@H]1CC[C@]2(O)C(=O)CO` [Hydrocortisone]: in [6] (1% Cream, Skin), the “Average Pedis Area, Hours: 0” value worked out at 6.9 mm^2; the “Average Pedis Area, Hours: 24” value is on record as 8.9*** mm^2; the “Average Pedis Area, Hours: 48” value is 7.8*** mm^2; the “Average Pedis Area, Hours: 60” value is 7.9*** mm^2. For the same molecule, in [8] (1% Cream, Skin), the “Average Pedis Area, Hours: 12” value is given as 9.0*** mm^2 and the “Toxicity Death” value was 0/5.

In the case of `COc1c(C)c2c(c(O)c1C/C=C(\C)CCC(=O)O)C(=O)OC2` [MPA], the IC50 in series [9] was 0.095 ± 0.027 µM; in [10], 0.416 ± 0.21 µM.

Consider `CO[C@H]1C[C@@H]2CC[C@@H](C)[C@@](O)(O2)C(=O)C(=O)N2CCCC[C@H]2C(=O)O[C@H]([C@H](C)C[C@@H]2CC[C@@H](O)[C@H](OC)C2)CC(=O)[C@H](C)/C=C(\C)[C@@H](O)[C@@H](OC)C(=O)[C@H](C)C[C@H](C)/C=C/C=C/C=C/1C` [Rapamycine, reference compound], for which the IC50 in series [3] (Homo sapiens, Lymphocyte) worked out at 0.61 µM.
